Assay results from the NIST ThermoML archive (doi:10.1016/j.fluid.2012.03.016).

Conditions: Pendant drop shape

C/C=C(\C)C(=O)[O-].C[N+](C)(C)CCO
Conditions	surface tension liquid-gas [mN/m]
294 K	31.6
303.9 K	30.7
314.2 K	30.7
323.9 K	30.9
333.5 K	30.2
338 K	29.8
340.1 K	29.9
346.2 K	29.9
348.2 K	28.5
357.4 K	28
362.5 K	28.2
373 K	27.6
379.5 K	26.1
391.8 K	26.4

CCC(=O)[O-].C[N+](C)(C)CCO [cholinium propanoate]
Conditions	surface tension liquid-gas [mN/m]
294 K	34.6
302.6 K	33.3
313.7 K	32.6
324.1 K	32.3
333.8 K	31.7
343.4 K	31.2
354.5 K	30.9
373.4 K	29.5
392.6 K	28.6

C[N+](C)(C)CCO.O=C([O-])CCC(=O)O [2-hydroxy-N,N,N-trimethylethanaminium 3-carboxypropanoate]
Conditions	surface tension liquid-gas [mN/m]
308.2 K	40.7
313.9 K	40.4
319.2 K	40.1
324 K	39.5
328.5 K	39.5
333.6 K	38.9
339.4 K	38.4
